Laboratory results from ChEMBL document CHEMBL3301472, “MMV Malaria Box HIV and cytotoxicity screening”.

How the values were obtained:
[1] = tested on: Human immunodeficiency virus 1; assay: MMV: HIV CXCR4-tropic env NL4-3 pseudovirus assay produces luciferase signal in lieu of replicating viral particles Day 3 pi, U87-CD4-CXCR4, % inhibition at 5 mM compound; assay type: functional; parameters: dose or concentration left out as unconfirmed; conditions: Human immunodeficiency virus 1, NL4-3, U87.CD4.CXCR4, 72 h
[2] = MMV: MTT Cytotoxicity Assay Day 7 pi of Assay #10 (NO washout), U87-CD4-CCR5 cells, % cell death @ 5mM compound; assay type: toxicity, cell-based; conditions: human, u87-cd4-ccr5, 5000 µM
[3] = MMV: MTT Cytotoxicity Assay Day 3 pi, U87-CD4-CCR5 cells, % cell death @ 5mM compound; assay type: toxicity, cell-based; conditions: human, u87-cd4-ccr5, 5000 µM
[4] = MMV: MTT Cytotoxicity Assay Day 7 pi of Assay #6 (compound washed out Day 1 pi), U87-CD4-CCR5 cells, % cell death @ 5mM compound; assay type: toxicity, cell-based; conditions: human, u87-cd4-ccr5, 5000 µM
[5] = MMV: MTT Cytotoxicity Assay Day 3 pi, U87-CD4-CXCR4 cells, % cell death @ 5mM compound; assay type: toxicity, cell-based; conditions: human, u87-cd4-cxcr4, 5000 µM
[6] = MMV: MTT Cytotoxicity Assay Day 7 pi of Assay #7 (compound washed out Day 1 pi), U87-CD4-CXCR4 cells, % cell death @ 5mM compound; assay type: toxicity, cell-based; conditions: human, u87-cd4-cxcr4, 5000 µM
[7] = MMV: MTT Cytotoxicity Assay Day 7 pi of Assay #11 (NO washout), U87-CD4-CXCR4 cells, % cell death @ 5mM compound; assay type: toxicity, cell-based; conditions: human, u87-cd4-cxcr4, 5000 µM
[8] = tested on: Human immunodeficiency virus 1; assay: MMV: HIV JRFL CCR5-tropic replication-competent virus, virus & compound washed out Day 1 pi, P24 ELISA Day 7 pi, U87-CD4-CCR5, % inhibition at 5 mM compound; assay type: functional; parameters: dose or concentration left out as unconfirmed; conditions: Human immunodeficiency virus 1, JR-FL

| Compound | inhibition [1] | % Cell Death [2] | % Cell Death [3] | % Cell Death [4] | % Cell Death [5] | % Cell Death [6] | % Cell Death [7] | inhibition [8] |
| --- | --- | --- | --- | --- | --- | --- | --- | --- |
| FC(F)(F)c1cccc(Nc2nc(-c3ccccc3)nc3ncccc23)c1 | 9% | 19 | 1 | 0 | -16 | 15 | -17 | – |
| OC(CNCC1CCCO1)Cn1c2ccc(Cl)cc2c2cc(Cl)ccc21 (stereo not given) | 0% | -2 | 11 | 26 | 15 | -28 | -7 | – |
| Cn1c(C(=O)c2cccc3ccccc23)nc2ccccc21 | 9% | 2 | -32 | -37 | 32 | -12 | -77 | – |
| CC1CCN(Cc2ccc(NC(=O)c3cc4ccc5cccnc5c4[nH]3)cc2)CC1 | -1% | 3 | 9 | 17 | 23 | -14 | -7 | – |
| Cl.Oc1ccccc1CNCC12CC3CC(CC(C3)C1)C2 | 3% | 37 | -8 | 20 | 15 | -11 | -2 | – |
| COc1cccc(NC(=O)[C@H](C(C)C)n2c(=O)[nH]c3ccccc3c2=O)c1 | 0% | 27 | 24 | 24 | 20 | 5 | 7 | – |
| Cc1cccc(Nc2nc(N)c3ccccc3n2)c1.Cl | – | 43 | 7 | 28 | 43 | -15 | 71 | 5% |
| CC(C)CNC(=O)c1c(N)n(CCc2ccccc2F)c2nc3ccccc3nc12 | – | 35 | 0 | 4 | 47 | -6 | 99 | 3% |
| COCCNC(=O)c1ccc(OC2CCN(Cc3ccc(F)c(F)c3)CC2)c(Cl)c1 | – | 15 | 31 | 20 | 4 | -5 | -22 | 9% |
| CN(C)c1ccc(-c2nc3cc(N)ccc3[nH]2)cc1 | – | 2 | 22 | -1 | 19 | -21 | -20 | 0% |
| Cc1cc(NC(=O)c2ccc(-c3ccccc3)cc2)no1 | – | 32 | -16 | -24 | 43 | -27 | -1 | 4% |
| CC(=O)c1ccc(NC(=O)CSc2nc(-c3ccccc3Cl)ns2)cc1 | – | 41 | 57 | 7 | 51 | 8 | -33 | 7% |
| O=C(Nc1cccc(C2=NCCN2)c1)Nc1cccc(C2=NCCN2)c1 [IMIDOCARB] | – | 63 | 31 | -6 | 63 | 15 | 65 | 7% |
| Cl.Clc1cc(Br)ccc1-c1ccc(CNCC2CCNCC2)o1 | – | 0 | 15 | -9 | 27 | 4 | -60 | 4% |
| CCCCCCc1cc2cc(-c3nc4ccccc4[nH]3)c(=Nc3ccccc3C)oc2cc1O | – | 44 | 31 | 15 | 25 | -2 | 53 | 4% |
| COc1ccc(-c2nc(NC(=O)CS(=O)(=O)c3ccc(F)cc3)sc2C)cc1 | – | 10 | 41 | -7 | 29 | 9 | 71 | -1% |
| O=C(NCc1ccco1)C1CCN(S(=O)(=O)c2ccc(Cl)cc2)CC1 | – | 18 | 22 | 37 | 12 | -15 | 23 | 1% |
| Cc1cc(C)c2nc(N3CCC(C(=O)NCCCN4CCC(N5CCCCC5)CC4)CC3)sc2c1 | – | -39 | -8 | 5 | 8 | -20 | -37 | 1% |
| CCOC(=O)C1=C(C)N=c2sc(=Cc3cc(Cl)ccc3O)c(=O)n2C1c1ccc(OC)cc1 (stereo not given) | – | 11 | -27 | 10 | 15 | -6 | -46 | 1% |
| CN(C)c1ccc(N2C(N)=NC(N)=NC2(C)C)cc1 | – | 4 | -12 | 14 | 21 | 12 | 21 | 1% |
| O=c1nc(C=Cc2ccc(Cl)cc2)oc2ccccc12 | – | 26 | 50 | 7 | 20 | -17 | -47 | 1% |
| Cc1ccc(-c2nc3ccccc3o2)cc1NCc1cc(Cc2ccccc2)ccc1O | – | 13 | 27 | -7 | 15 | -11 | 52 | 8% |
| Cc1ccc(CSCc2ccc(C(=O)NC3CC3)o2)cc1 | – | -6 | 23 | 18 | 12 | -23 | -2 | 2% |
| CC(O)(c1ccc(Cl)cc1)C(CN1CCCCC1)c1ccccc1.Cl (stereo not given) | – | 19 | -11 | 24 | 3 | -24 | -5 | 3% |
| COc1ccc(Nc2nc(NCc3ccccc3)c3ccccc3n2)cc1 | – | 41 | 18 | 21 | 28 | -30 | -24 | 2% |
